We go through 18 compounds from patent US20210395239A1 (Hoffmann-La Roche Inc., priority 2018, published 2021).

This assay deals with T1, hTLR9 (Homo sapiens, UniProt Q9NR96).
T1 sequence (Q9NR96 26-1032): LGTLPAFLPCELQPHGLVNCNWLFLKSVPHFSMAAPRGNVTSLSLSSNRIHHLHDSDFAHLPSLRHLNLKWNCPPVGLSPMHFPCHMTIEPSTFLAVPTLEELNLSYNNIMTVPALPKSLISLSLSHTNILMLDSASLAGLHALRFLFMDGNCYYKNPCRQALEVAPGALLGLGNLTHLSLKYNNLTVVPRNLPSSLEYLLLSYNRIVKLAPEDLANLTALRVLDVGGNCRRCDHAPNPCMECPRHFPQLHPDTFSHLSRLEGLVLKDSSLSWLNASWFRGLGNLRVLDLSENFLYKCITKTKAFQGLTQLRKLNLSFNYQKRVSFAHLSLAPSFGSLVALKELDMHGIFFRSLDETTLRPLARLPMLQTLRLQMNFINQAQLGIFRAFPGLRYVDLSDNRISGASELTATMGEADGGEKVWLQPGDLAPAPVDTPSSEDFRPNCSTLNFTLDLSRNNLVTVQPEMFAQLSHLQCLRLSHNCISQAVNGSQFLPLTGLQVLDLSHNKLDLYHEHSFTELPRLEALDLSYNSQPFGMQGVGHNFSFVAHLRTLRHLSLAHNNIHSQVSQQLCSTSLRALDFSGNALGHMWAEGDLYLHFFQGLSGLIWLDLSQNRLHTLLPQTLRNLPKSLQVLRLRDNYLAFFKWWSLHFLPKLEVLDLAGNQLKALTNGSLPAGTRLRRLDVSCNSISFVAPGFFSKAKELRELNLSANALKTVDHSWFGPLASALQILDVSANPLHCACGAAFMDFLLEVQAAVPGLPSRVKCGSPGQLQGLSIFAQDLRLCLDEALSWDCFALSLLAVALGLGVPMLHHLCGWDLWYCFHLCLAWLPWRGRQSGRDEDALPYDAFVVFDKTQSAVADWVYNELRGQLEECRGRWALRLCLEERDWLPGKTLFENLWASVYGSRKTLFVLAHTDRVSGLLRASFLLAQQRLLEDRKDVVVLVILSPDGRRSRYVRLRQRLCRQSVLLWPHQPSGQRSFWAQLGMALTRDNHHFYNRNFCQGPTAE
Briefly: HEK293-Blue-hTLR-9 cells assay (SEAP reporter, ODN2006 stimulation). In kind it is cell-based. Details: host or cells: HEK293 (HEK-Blue hTLR9). As to conditions: HEK293-Blue-hTLR9 cells, ODN2006, 20 hrs; read-out: HEK/hTLR9 IC50. The source says:
HEK293-Blue-hTLR-9 Cells Assay:
A stable HEK293-Blue-hTLR-9 cell line was purchased from InvivoGen (Cat. #: hkb-htlr9, San Diego, Calif., USA). These cells were originally designed for studying the stimulation of human TLR9 by monitoring the activation of NF-κB. A SEAP (secreted embryonic alkaline phosphatase) reporter gene was placed under the control of the IFN-β minimal promoter fused to five NF-κB and AP-1-binding sites. The SEAP was induced by activating NF-κB and AP-1 via stimulating HEK-Blue hTLR9 cells with TLR9 ligands. Therefore the reporter expression was declined by TLR9 antagonist under the stimulation of a ligand, such as ODN2006 (Cat. #: tlrl-2006-1, Invivogen, San Diego, Calif., USA), for incubation of 20 hrs. The cell culture supernatant SEAP reporter activity was determined using QUANTI-Blue™ kit (Cat. #: rep-qb1, Invivogen, San Diego, Calif., USA) at a wavelength of 640 nm, a detection medium that turns purple or blue in the presence of alkaline phosphatase.
HEK293-Blue-hTLR9 cells were incubated at a density of 250,000˜450,000 cells/mL in a volume of 170 μL in a 96-well plate in Dulbecco's Modified Eagle's medium (DMEM) containing 4.5 g/L glucose, 50 U/mL penicillin, […], 2 mM L-glutamine, 10% (v/v) heat-inactivated fetal bovine serum with addition of 20 μL test compound in a serial dilution in the presence of final DMSO at 1% and 10 μL of 20 uM ODN2006 in above DMEM, perform incubation under 37° C. in a CO2 incubator for 20 hrs. Then 20 μL of the supernatant from each well was incubated with 180 μL Quanti-blue substrate solution at 37° C. for 2 h and the absorbance was read at 620-655 nm using a spectrophotometer. The signaling pathway that TLR9 activation leads to downstream NF-κB activation has been widely accepted, and therefore similar reporter assay was modified for evaluating TLR9 antagonist.
`[2H]c1ccc2c(N3C[C@H](CN4CC(c5ccc(N6C[C@H](OC)[C@@H](N)C6)cc5)C4)O[C@H](C)C3)ccc(C#N)c2n1` [Example 140, 5-[(2S,6R)-2-[[3-[4-[(3S,4S)-3-amino-4-methoxy-pyrrolidin-1-yl]phenyl]azetidin-1-yl]methyl]-6-methyl-morpholin-4-yl]-2-deuterio-quinoline-8-carbonitrile]: the IC50 was determined as 0.162 µM.

With `[2H]c1ccc2c(N3C[C@H](CN4CC(c5ccc(N6C[C@@H](N)[C@H](OC)C6)nc5)C4)O[C@H](C)C3)ccc(C#N)c2n1` [Example 149, 5-[(2S,6R)-2-[[3-[6-[(3R,4R)-3-amino-4-methoxy-pyrrolidin-1-yl]-3-pyridyl]azetidin-1-yl]methyl]-6-methyl-morpholin-4-yl]-2-deuterio-quinoline-8-carbonitrile], the IC50 turned out to be 0.068 µM.

As to `[2H]c1ccc2c(N3C[C@H](CN4CCN(c5ccc(N6CC7(CN(C)C7)C6)nc5)CC4)O[C@H](C)C3)ccc(C#N)c2n1` [Example 161, 2-deuterio-5-[(2R,6S)-2-methyl-6-[[4-[6-(6-methyl-2,6-diazaspiro[3.3]heptan-2-yl)-3-pyridyl]piperazin-1-yl]methyl]morpholin-4-yl]quinoline-8-carbonitrile], the IC50 amounted to 0.059 µM.

Take `[2H]c1ccc2c(N3C[C@H](CN4CCN(c5ccc(N6C[C@@H](N)[C@H](OC)C6)nc5)CC4)O[C@H](C)C3)ccc(C#N)c2n1` [Example 143, 5-[(2S,6R)-2-[[4-[6-[(3R,4R)-3-amino-4-methoxy-pyrrolidin-1-yl]-3-pyridyl]piperazin-1-yl]methyl]-6-methyl-morpholin-4-yl]-2-deuterio-quinoline-8-carbonitrile]: the IC50 was determined as 0.047 µM.

Turning to `C[C@@H]1CN(c2ccc(C#N)c3ncccc23)C[C@H](CN2CCN(c3ccc(CN)cc3)CC2)O1` [Example 5, 5-[(2S,6R)-2-[[4-[4-(aminomethyl)phenyl]piperazin-1-yl]methyl]-6-methyl-morpholin-4-yl]quinoline-8-carbonitrile], the IC50 came out at 0.198 µM.

For the compound `C[C@@H]1CN(c2ccc(C#N)n3nccc23)C[C@H](CN2CC(c3ccc(N4CC(C)(N)C4)cc3)C2)O1` [Example 163, 4-[(2S,6R)-2-[[3-[4-(3-amino-3-methyl-azetidin-1-yl)phenyl]azetidin-1-yl]methyl]-6-methyl-morpholin-4-yl]pyrazolo[1,5-a]pyridine-7-carbonitrile], the IC50 was 0.101 µM.

Consider `C[C@@H]1CN(c2ccc(C#N)n3ncc(F)c23)C[C@H](CN2CC(c3ccc(N4C[C@@H]5C[C@H]4CN5)nc3)C2)O1` [Example 165, 4-[(2S,6R)-2-[[3-[6-[(1S,4S)-2,5-diazabicyclo[2.2.1]heptan-2-yl]-3-pyridyl]azetidin-1-yl]methyl]-6-methyl-morpholin-4-yl]-3-fluoro-pyrazolo[1,5-a]pyridine-7-carbonitrile], for which the IC50 amounted to 0.108 µM.

In the case of `CO[C@H]1CN(c2ccnc(N3CCN(C[C@H]4CN(c5ccc(C#N)c6ncccc56)C[C@@H](C)O4)CC3)n2)C[C@@H]1N` [Example 97, 5-[(2S,6R)-2-[[4-[4-[(3S,4S)-3-amino-4-methoxy-pyrrolidin-1-yl]pyrimidin-2-yl]piperazin-1-yl]methyl]-6-methyl-morpholin-4-yl]quinoline-8-carbonitrile], the IC50 stood at 0.034 µM.

With `COC1CCN(c2nccc(N3CCN(C[C@H]4CN(c5ccc(C#N)c6ncccc56)C[C@@H](C)O4)CC3)n2)CC1N` (stereo partly drawn) [Example 109, 5-[(2S,6R)-2-[[4-[2-(3-amino-4-methoxy-1-piperidyl)pyrimidin-4-yl]piperazin-1-yl]methyl]-6-methyl-morpholin-4-yl]quinoline-8-carbonitrile], the IC50 was 0.046 µM.

As to `Cc1cnc(N2CCN(C[C@H]3CN(c4ccc(C#N)c5ncccc45)C[C@@H](C)O3)CC2)nc1N1CCNCC1` [Example 102, 5-[(2R,6S)-2-methyl-6-[[4-(5-methyl-4-piperazin-1-yl-pyrimidin-2-yl)piperazin-1-yl]methyl]morpholin-4-yl]quinoline-8-carbonitrile], the IC50 was found to be 0.08 µM.

Take `[2H]c1ccc2c(N3C[C@H](CN4CC(c5ccc(N6CC(C)(N)C6)cc5)C4)O[C@H](C)C3)ccc(C#N)c2n1` [Example 141, 5-[(2S,6R)-2-[[3-[4-(3-amino-3-methyl-azetidin-1-yl)phenyl]azetidin-1-yl]methyl]-6-methyl-morpholin-4-yl]-2-deuterio-quinoline-8-carbonitrile]: the IC50 stood at 0.044 µM.

With `CO[C@@H]1CN(c2ccc(C3CN(C[C@H]4CN(c5ccc(C#N)n6ncc(F)c56)C[C@@H](C)O4)C3)cn2)C[C@H]1N` [Example 164, 4-[(2S,6R)-2-[[3-[6-[(3R,4R)-3-amino-4-methoxy-pyrrolidin-1-yl]-3-pyridyl]azetidin-1-yl]methyl]-6-methyl-morpholin-4-yl]-3-fluoro-pyrazolo[1,5-a]pyridine-7-carbonitrile], the IC50 was 0.086 µM.

On to `[2H]c1ccc2c(N3C[C@H](CN4CCN(c5ncc(N6CC(C)(N)C6)cc5C)CC4)O[C@H](C)C3)ccc(C#N)c2n1` [Example 139, 5-[(2S,6R)-2-[[4-[5-(3-amino-3-methyl-azetidin-1-yl)-3-methyl-2-pyridyl]piperazin-1-yl]methyl]-6-methyl-morpholin-4-yl]-2-deuterio-quinoline-8-carbonitrile], for which the IC50 stood at 0.078 µM.

On to `[2H]c1ccc2c(N3C[C@H](CN4CC(c5cccc(N6CC(C)(N)C6)n5)C4)O[C@H](C)C3)ccc(C#N)c2n1` [Example 159, 5-[(2S,6R)-2-[[3-[6-(3-amino-3-methyl-azetidin-1-yl)-2-pyridyl]azetidin-1-yl]methyl]-6-methyl-morpholin-4-yl]-2-deuterio-quinoline-8-carbonitrile], for which the IC50 is 0.1 µM.

Turning to `Cc1ccc(N2C[C@H](CN3CCN(c4ccnc(N5CCN[C@H](C)C5)n4)CC3)O[C@H](C)C2)c2nccnc12` [Example 128, (2R,6S)-2-methyl-6-[[4-[2-[(3R)-3-methylpiperazin-1-yl]pyrimidin-4-yl]piperazin-1-yl]methyl]-4-(8-methylquinoxalin-5-yl)morpholine], the IC50 is 0.182 µM.

`Cc1cc(N2CC(C)(N)C2)cnc1N1CCN(C[C@H]2CN(c3ccc(C#N)n4ncc(F)c34)C[C@@H](C)O2)CC1` [Example 148, 4-[(2S,6R)-2-[[4-[5-(3-amino-3-methyl-azetidin-1-yl)-3-methyl-2-pyridyl]piperazin-1-yl]methyl]-6-methyl-morpholin-4-yl]-3-fluoro-pyrazolo[1,5-a]pyridine-7-carbonitrile]: the IC50 was found to be 0.075 µM.

Take `[2H]c1ccc2c(N3C[C@H](CN4CC(c5cnc(N6CC(C)(N)C6)cc5C)C4)O[C@H](C)C3)ccc(C#N)c2n1` [Example 145, 5-[(2S,6R)-2-[[3-[6-(3-amino-3-methyl-azetidin-1-yl)-4-methyl-3-pyridyl]azetidin-1-yl]methyl]-6-methyl-morpholin-4-yl]-2-deuterio-quinoline-8-carbonitrile]: the IC50 was 0.031 µM.

With `Cc1ccc(N2C[C@H](CN3CCN(c4ccnc(N5CCNCC5)n4)CC3)O[C@H](C)C2)c2nccnc12` [Example 117, (2R,6S)-2-methyl-4-(8-methylquinoxalin-5-yl)-6-[[4-(2-piperazin-1-ylpyrimidin-4-yl)piperazin-1-yl]methyl]morpholine], the IC50 was 0.109 µM.
